From patent US9499550B2 (BRISTOL-MYERS SQUIBB COMPANY, priority 2012, dated 2016)
Like-named read-outs stand apart in the source and are kept apart here.

How the values were obtained:
[1] = system: HCV genotype 1a (H77 strain) replicon in HUH-7 cells; experiment: HCV replicon luciferase reporter assay, genotype 1a; assay type: cell-based; conditions: Hepatitis C virus, Huh-7, 72 h, 3 days incubation
How it was run: (§1)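 Replicon inhibition for both genotypes was measured as Renilla luciferase signal (EnduRen, 7.5 μM final, 2 h) after 3-day, 37° C exposure of replicon-bearing HUH-7 cells in 4% FCS DMEM, 0.5% DMSO. The 1b construct carries S1179I; the 1a H77 construct carries P1496L and S2204I. Twenty-point, 3-fold dilutions were fitted four-parametrically for EC50, and CC50 was taken from multiplexed Cell Titer-Blue.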

[2] = system: HCV genotype 1b (Con1) replicon in HUH-7 cells; experiment: HCV replicon luciferase reporter assay, genotype 1b; assay type: cell-based; conditions: Hepatitis C virus, Huh-7, 72 h, 3 days incubation
How it was run: as §1

[3] = HCV genotype 1a replicon luciferase assay, range class, read-out: LE_1a (EC50, range)
[4] = HCV genotype 1b replicon luciferase assay, range class, read-out: LE_1b (EC50, range)
[5] = HCV genotype 1a replicon luciferase, read-out: LE_1a (EC50, range)
[6] = HCV genotype 1b replicon luciferase, read-out: LE_1b (EC50, range)
[7] = HCV genotype 1a replicon luciferase, read-out: LE_1a (EC50)
[8] = HCV genotype 1b replicon luciferase, read-out: LE_1b (EC50)

Structure (SMILES) | EC50 [1, 5] [nM] | EC50 [2, 6] [nM] | further results
COc1ccc2c(O[C@@H]3C[C@H]4C(=O)N[C@]5(C(=O)NS(=O)(=O)C6(C)CC6)C[C@H]5/C=C\CC[C@@H](C)C[C@@H](C)[C@H](NC(=O)OCC5(C)CC5)C(=O)N4C3)nc(-c3ccc(F)cc3)cc2c1 [Compound 3085, (1-methylcyclopropyl)methyl ((2R,6S,7R,9R,13aS,14aR,16aS,Z)-2-((3-(4-fluorophenyl)-6-methoxyisoquinolin-1-yl)oxy)-7,9-dimethyl-14a-(((1-methylcyclopropyl)sulfonyl)carbamoyl)-5,16-dioxo-1,2,3,5,6,7,8,9,10,11,13a,14,14a,15,16,16a-hexadecahydrocyclopropa[e]pyrrolo[1,2-a][1,4]diazacyclopentadecin-6-yl)carbamate] |  |  | EC50 [1, 3]: < 5.46 nM; EC50 [2, 4]: < 5.46 nM
CC[C@@H]1C[C@H](C)CC/C=C\[C@@H]2C[C@@]2(C(=O)NS(=O)(=O)C2(C)CC2)NC(=O)[C@@H]2C[C@@H](Oc3nnc(OC)c4ccccc34)CN2C(=O)[C@H]1NC(=O)NC(C)(C)C [Compound 5024, (2R,6S,7R,9R,13aS,14aR,16aS,Z)-6-(3-(tert-butyl)ureido)-7-ethyl-2-((4-methoxyphthalazin-1-yl)oxy)-9-methyl-N-((1-methylcyclopropyl)sulfonyl)-5,16-dioxo-1,2,3,5,6,7,8,9,10,11,13a,14,14a,15,16,16a-hexadecahydrocyclopropa[e]pyrrolo[1,2-a][1,4]diazacyclopentadecine-14a-carboxamide] | < 5.46 | < 5.46 | 
COc1cnc(O[C@@H]2C[C@H]3C(=O)N[C@]4(C(=O)NS(=O)(=O)C5CC5)C[C@H]4/C=C\CC[C@@H](C)C[C@@H](C)[C@H](NC(=O)OC(C)(C)C)C(=O)N3C2)c2cc(Cl)ccc12 [Compound 1207, tert-butyl ((2R,6S,7R,9R,13aS,14aR,16aS,Z)-2-((7-chloro-4-methoxyisoquinolin-1-yl)oxy)-14a-((cyclopropylsulfonyl)carbamoyl)-7,9-dimethyl-5,16-dioxo-1,2,3,5,6,7,8,9,10,11,13a,14,14a,15,16,16a-hexadecahydrocyclopropa[e]pyrrolo[1,2-a][1,4]diazacyclopentadecin-6-yl)carbamate] | 1.01 to 5 | 0.51 to 1 | 
C[C@H]1CC/C=C\[C@@H]2C[C@@]2(C(=O)NS(=O)(=O)C2(C)CC2)NC(=O)[C@@H]2C[C@@H](Oc3nccc4c5c(ccc34)OCCO5)CN2C(=O)[C@@H](NC(=O)OCC2(C)CC2)[C@H](C)C1 [Compound 5250, (1-methylcyclopropyl)methyl ((2R,6S,7R,9S,13aS,14aR,16aS,Z)-2-((2,3-dihydro-[1,4]dioxino[2,3-f]isoquinolin-7-yl)oxy)-7,9-dimethyl-14a-(((1-methylcyclopropyl)sulfonyl)carbamoyl)-5,16-dioxo-1,2,3,5,6,7,8,9,10,11,13a,14,14a,15,16,16a-hexadecahydrocyclopropa[e]pyrrolo[1,2-a][1,4]diazacyclopentadecin-6-yl)carbamate] | 4.82 to 103 | 4.82 to 103 | EC50 [1, 7]: 22.6 nM; EC50 [2, 8]: 5.5 nM
C[C@@H]1CC/C=C\[C@@H]2C[C@@]2(C(=O)NS(=O)(=O)C2(C)CC2)NC(=O)[C@@H]2C[C@@H](Oc3ncc(N4CCOCC4)c4ccccc34)CN2C(=O)[C@@H](NC(=O)OC(C)(C)C(F)(F)F)[C@H](C)C1 [Compound 5423, 1,1,1-trifluoro-2-methylpropan-2-yl((2R,6S,7R,9R,13aS,14aR,16aS,Z)-7,9-dimethyl-14a-(((1-methylcyclopropyl)sulfonyl)carbamoyl)-2-((4-morpholinoisoquinolin-1-yl)oxy)-5,16-dioxo-1,2,3,5,6,7,8,9,10,11,13a,14,14a,15,16,16a-hexadecahydrocyclopropa[e]pyrrolo[1,2-a][1,4]diazacyclopentadecin-6-yl)carbamate] | 1.01 to 5 | 0.51 to 1 | 
CCCOc1ccc2c(O[C@@H]3C[C@H]4C(=O)N[C@]5(C(=O)NS(=O)(=O)C6CC6)C[C@H]5/C=C\CC[C@@H](C)C[C@@H](C)[C@H](NC(=O)OC(C)(C)C(F)(F)F)C(=O)N4C3)nccc2c1 [Compound 5171, 1,1,1-trifluoro-2-methylpropan-2-yl((2R,6S,7R,9R,13aS,14aR,16aS,Z)-14a-((cyclopropylsulfonyl)carbamoyl)-7,9-dimethyl-5,16-dioxo-2-((6-propoxyisoquinolin-1-yl)oxy)-1,2,3,5,6,7,8,9,10,11,13a,14,14a,15,16,16a-hexadecahydrocyclopropa[e]pyrrolo[1,2-a][1,4]diazacyclopentadecin-6-yl)carbamate] | < 5.46 | < 5.46 | 
CCn1nc(O[C@@H]2C[C@H]3C(=O)N[C@]4(C(=O)NS(=O)(=O)C5CC5)C[C@H]4/C=C\CC[C@@H](C)C[C@@H](C)[C@H](NC(=O)O[C@@H]4C[C@@H]5C[C@@H]5C4)C(=O)N3C2)c2ccccc2c1=O [Compound 5070, (1R,3r,5S)-bicyclo[3.1.0]hexan-3-yl((2R,6S,7R,9R,13aS,14aR,16aS,Z)-14a-((cyclopropylsulfonyl)carbamoyl)-2-((3-ethyl-4-oxo-3,4-dihydrophthalazin-1-yl)oxy)-7,9-dimethyl-5,16-dioxo-1,2,3,5,6,7,8,9,10,11,13a,14,14a,15,16,16a-hexadecahydrocyclopropa[e]pyrrolo[1,2-a][1,4]diazacyclopentadecin-6-yl)carbamate] | 4.82 to 103 | < 5.46 | 
CCCOc1cnc(O[C@@H]2C[C@H]3C(=O)N[C@]4(C(=O)NS(=O)(=O)C5CC5)C[C@H]4/C=C\CC[C@@H](C)C[C@@H](C)[C@H](NC(=O)O[C@@H]4C[C@@H]5C[C@@H]5C4)C(=O)N3C2)c2ccccc12 [Compound 5093, (1R,3r,5S)-bicyclo[3.1.0]hexan-3-yl((2R,6S,7R,9R,13aS,14aR,16aS,Z)-14a-((cyclopropylsulfonyl)carbamoyl)-7,9-dimethyl-5,16-dioxo-2-((4-propoxyisoquinolin-1-yl)oxy)-1,2,3,5,6,7,8,9,10,11,13a,14,14a,15,16,16a-hexadecahydrocyclopropa[e]pyrrolo[1,2-a][1,4]diazacyclopentadecin-6-yl)carbamate] | 4.82 to 103 | < 5.46 | 
CC(C)n1nc(O[C@@H]2C[C@H]3C(=O)N[C@]4(C(=O)NS(=O)(=O)C5(C)CC5)C[C@H]4/C=C\CC[C@@H](C)C[C@@H](C)[C@H](NC(=O)OC(C)(C)C)C(=O)N3C2)c2ccccc2c1=O [Compound 1004, tert-butyl ((2R,6S,7R,9R,13aS,14aR,16aS,Z)-2-((3-isopropyl-4-oxo-3,4-dihydrophthalazin-1-yl)oxy)-7,9-dimethyl-14a-(((1-methylcyclopropyl)sulfonyl)carbamoyl)-5,16-dioxo-1,2,3,5,6,7,8,9,10,11,13a,14,14a,15,16,16a-hexadecahydrocyclopropa[e]pyrrolo[1,2-a][1,4]diazacyclopentadecin-6-yl)carbamate] |  |  | EC50 [1, 3]: > 87.4 nM; EC50 ([1]; HCV genotype 1a replicon luciferase assay, read-out: LE_1a (EC50)): 110 nM; EC50 [2, 4]: 4.82 to 103 nM; EC50 ([2]; HCV genotype 1b replicon luciferase assay, read-out: LE_1b (EC50)): 48.8 nM
COc1ccc2c(O[C@@H]3C[C@H]4C(=O)N[C@]5(C(=O)NS(=O)(=O)C6(C)CC6)C[C@H]5/C=C\CC[C@@H](C)C[C@@H](C)[C@H](NC(=O)NC(C)(C)C)C(=O)N4C3)nccc2c1 [Compound 5179, (2R,6S,7R,9R,13aS,14aR,16aS,Z)-6-(3-(tert-butyl)ureido)-2-((6-methoxyisoquinolin-1-yl)oxy)-7,9-dimethyl-N-((1-methylcyclopropyl)sulfonyl)-5,16-dioxo-1,2,3,5,6,7,8,9,10,11,13a,14,14a,15,16,16a-hexadecahydrocyclopropa[e]pyrrolo[1,2-a][1,4]diazacyclopentadecine-14a-carboxamide] | < 5.46 | < 5.46 | 
COc1ccc2c(O[C@@H]3C[C@H]4C(=O)N[C@]5(C(=O)NS(=O)(=O)C6(C)CC6)C[C@H]5/C=C\CC[C@@H](C)C[C@@H](C)[C@H](NC(=O)c5ccn(C)c(=O)c5)C(=O)N4C3)ncc(OC)c2c1 [Compound 4143, (2R,6S,7R,9R,13aS,14aR,16aS,Z)-2-(4,6-dimethoxyisoquinolin-1-yloxy)-7,9-dimethyl-6-(1-methyl-2-oxo-1,2-dihydropyridine-4-carboxamido)-N-(1-methylcyclopropylsulfonyl)-5,16-dioxo-1,2,3,5,6,7,8,9,10,11,13a,14,14a,15,16,16a-hexadecahydrocyclopropa[e]pyrrolo[1,2-a][1,4]diazacyclopentadecine-14a-carboxamide] | 4.82 to 103 | 4.82 to 103 | 
CC[C@@H]1C[C@H](C)CC/C=C\[C@@H]2C[C@@]2(C(=O)NS(=O)(=O)C2(C)CC2)NC(=O)[C@@H]2C[C@@H](Oc3ncc(OC)c4ccc(F)cc34)CN2C(=O)[C@H]1NC(=O)N1CCOCC1 [Compound 4284, N-((2R,6S,7R,9R,13aS,14aR,16aS,Z)-7-ethyl-2-((7-fluoro-4-methoxyisoquinolin-1-yl)oxy)-9-methyl-14a-(((1-methylcyclopropyl)sulfonyl)carbamoyl)-5,16-dioxo-1,2,3,5,6,7,8,9,10,11,13a,14,14a,15,16,16a-hexadecahydrocyclopropa[e]pyrrolo[1,2-a][1,4]diazacyclopentadecin-6-yl)morpholine-4-carboxamide] | 0.51 to 1 | 0.1 to 0.5 | EC50 [1, 7]: 0.73 nM; EC50 [2, 8]: 0.42 nM
